# Results published in patent US9458101B2 (priority 2009, dated 2016).
# Legend:
# CEM cells [1] = type: cell-based, Human
# [2] = test system: CCRF-CEM (Human T-lymphoblastoids from ALL); test: cells; type: cell-based; settings: 72 hours, precision +/−0.5 or better
# Text: (§1) A full factorial experimental design was used, for a total of 28 cases.
# (§2) For each (cell line, compound) pair, the following conditions were used, with each condition being assigned to a lane on a microtiter plate: • a. Seven or eight concentration levels between 1×10^−10 M and 1×10^−3 M. • b. A control with cells and media only. • c. A control with cells, media and DMSO only. The DMSO was at a concentration approximately equal to that used in the highest drug concentration level.
# (§3) Additionally, 6-8 replicates (wells) of each condition were done on the plate. Drug solutions were prepared by dissolving the solid compounds in DMSO and then diluting in water. An approximately equal number of cells were introduced into each well of the plate and cells were incubated for 72 hours. An MTS assay was performed and absorbance values were measured with a spectrophotometer. Finally, a log IC50 parameter was calculated by fitting a 4-parameter logistic model to the data using an implementation of the Levenberg-Marquardt algorithm.
# [3] = test system: NCI-H226 (Human lung squamous cell carcinoma); test: cells; type: cell-based; settings: NCI-H226, 72 hours, precision +/−0.5 or better
# Text: as §1, §2, §3
# [4] = test system: A549 (Human lung adenocarcinoma); test: cells; type: cell-based; settings: A549, 72 hours, precision +/−0.5 or better
# Text: as §1, §2, §3
# [5] = test system: MCF-7 (Human mammary gland adenocarcinoma); test: cells; type: cell-based; settings: MCF7, MCF-7, 72 hours, precision +/−0.5 or better
# Text: as §1, §2, §3
# [6] = Dissolution of drug for cytotoxicity testing; type: physicochemical; design: key: X*: Did not dissolve at normal pH; settings: footnote of Table 3
# Method: Drug solutions were prepared by dissolving it into 4.5% dimethylsulfoxide and diluting with distilled water to a final concentration of 1 mM. A series of dilutions were prepared and a wavelength scan of the diluted solution was used to determine the wavelength of maximum absorbance for each compound. Five standardized drug concentrations were scanned at this pre-determined wavelength to obtain an estimate of the compound's extinction coefficient.
# CEM cells [7] = test: 19F MRI signal intensity of treated 3-D CEM cultures in HFB (cell number with fluorine uptake); type: cell-based, Human; settings: for mean CEM cell density in the region with lower densities / mean number of cells in the region with higher cell densities: MRI; for mean cell concentration corresponding to mean 19F SI: cells with fluorine derivative uptake
# Method: All MRI experiments were performed using a 9.4 Tesla with 21 cm bore magnet (Magnex, U.K.) and TMX console (NRC-IBD, Canada). ^19F MR images were acquired using double (^19F and ^1H) tuned transmit/receive radio frequency (RF) volume coil operating at 376 MHz and 400 MHz corresponding to ^19F and ^1H Larmour frequency at 9.4 Tesla, respectively. ^1H MR images were collected in the same imaging session that ^19F MRI. Proton MR provided anatomical images of the culture. The MRI images monitored the localization of cells around the fiber in HFB as well as the volume of the cells. Moreover, ^19F MRI selectively visualizes only intracellular fluorine uptake with no background, therefore allows cell count. The cells before and after treatment with (6), (13), (28) and (35) were imaged with ^1H MRI, this allowed changes to be observed in the 3-D cell aggregation. The cells treated with 20 nM (28) and (35) were also imaged with ^19F MRI to measure fluorine content using ^19F NMR signal intensity (SI) in each HFB treated with (28) and (35). […] To obtain the calibration curves (for each derivative separately) the phantoms consisting of HFB tubes filled with 1 nM, 10 nM, 20 nM, 100 nM, 500 nM and 1000 nM of (28) or (35) and 10^3 cells, 10^4 cells, 10^5 cells, 10^6 cells, 10^7 cells, 10^8 cells and 10^9 cells were used. The linear regression was used to find the SI dependence on cell numbers. The cell numbers estimated from ^19F MR imaging were compared to the cell viability obtained from trypan blue assays. […] One 1 mm slice was acquired with a matrix size of 256×256 and a field of view of 3×3 cm for both ^19F and ^1H.
# CEM cells [8] = test: HPLC-UV profile of treated CEM cells; type: cell-based, Human; settings: for apoptotic protein signal, HPLC peak intensity: eluted at 57 min
# Method: Digested cell samples were fractionated with a Gold HPLC chromatograph system equipped with a Gold 166 Ultra Violet (UV) Detector and 32-Karat software (Beckman-Coulter, Mississauga, ON, Canada). For reversed-phase HPLC, a Vydac 218 TP54 Protein & Peptide C18 analytical column, 300 Å pore size, 0.46 cm×25 cm (Separation Group, Hesperia, Calif., U.S.A.) was used. The chromatograph was equipped with a Rheodyne injector (5 μL). UV detection was performed at 245 nm. Eluent A consisted of 5% acetonitrile (ACN) water solution and eluent B of 0.01% trifluoroacetic acid in 95% ACN water solution. A linear gradient from 5 to 70% ACN was applied over 60 min.
# It was assumed that signals eluted at 30-35 min were unreacted derivatives with variable intensity of 0.1 V for (28) and (35) as well as 0.35 V for (13) and 0.9 V for (6). […] An additional signal eluted at 57 min occurred in samples treated with (35) and (28) (FIGS. 10D and 10E). The signals at 57 min differ at about 5 min in elution present one from cascade of apoptotic protein in treated cells. The peak intensity of 0.3 V (28) and 0.2 V (35) corresponded to viability of cells 38% (28) and 35% (35) and unreacted derivatives 0.1 (28), 0.1 (35), respectively. The undefined additional peaks with very low intensities, less then 0.05 V, are the metabolites of derivatives or unreacted compounds.
# CEM cells [9] = test: Viability of 3-D CEM cell cultures in Hollow Fiber Bioreactor (HFB), trypan blue; type: cell-based, Human; settings: for number of viable cells: HFB, decreased from 10^9 cells/mL, 1000 nM, within 72 h; for viability of cells in HFB: after 3 days of treatment; for viability of cell cultures: samples analysed by HPLC
# Method: CEM cells (American Type Culture Collection, Manassas, Va.) were maintained in tissue culture flasks and cultured as monolayer in 20 mL of RPMI media containing 10% Fetal Bovine Serum (FBS). When the number of cells in the culture flask reached 5-6×10^6 cells/mL the culture was harvested and then inoculated into six Hollow Fiber Bioreactors (HFB, FiberCells System, Frederick, Md.) and were continuously cultured in 37° C. and 5% CO2. HFB consists of a single, hydrophylic and polysulfone fiber with 0.1 μm diameter pores. The media circulating within the HFB cartridge and polysulphone tubing, at flow rate of 14 mL/min, brings oxygen and nutrients to cells and removes CO2 and other waste. Collagen solution was used to create an extra cellular matrix between the cells and the fiber. The polysulphone fiber was coated with protein by flushing with 10 mL of coating solution containing 1 mg collagen per 1 mL Phosphate Buffered Saline (PBS). The pH was maintained in the extra-capillary space throughout the duration of experiments between 6.8 and 7.0. Due to the perfusion the HFB absorbed sufficient oxygen from the reservoir with fresh media to keep cells alive. The perfusion medium was changed weekly when the glucose level reached 2 g/L measured with a glucometer.
# Viability was assessed using trypan blue (K. Takahashi, G. Loo, Biochem. Pharm. 67 (2004) 315-324). Briefly, CEM cells were harvested from HFB, seeded in 6 well microplates and exposed to 0.4% (w/v) trypan blue dye solution. Cell number was determined manually with a hemacytometer chamber (Hausser Scientific, Horsham, Pa.).
# Approximately 4×10^4 CEM cells/ml were treated on culture plates and placed for the 72 h incubation with (2-16) and (28-38) derivatives. All compounds were used for in vitro experiments and then the derivatives were selected for HFB studies to treat 10^9 CEM cells/mL in the 3-D cultures. The cells were treated 4 weeks after the cells' inoculation in the HFB. After 72 h, the growth was inhibited over 50% for 20 nM and higher concentrations in cells treated with (6), (13), (28) and (35).
# CEM cells, American Type Culture Collection (Manassas, Va.), were maintained in tissue culture flasks and cultured as monolayer in 20 ml of RPMI media containing 10% Fetal Bovine Serum (FBS) and divided from 5×10^5 cells/mL to 2.5×10^4 cells/mL two times per week. When the number of the cells in the culture flask reached 5-6×10^6 cells/ml the culture was harvested and then inoculated into six Hollow Fiber Bioreactors (HFB, FiberCells System Inc., Frederick, Md.) and then continuously cultured in 37° C. and 5% CO2. The HFB consists of a single, hydrophylic and polysulfone fiber with 0.1 μm diameter pores. The media circulate within the HFB cartridge and polysulphone tubing, at flow rate of 14 mL/min, bringing oxygen and nutrients to cells and removing CO2 and other waste. Collagen solution was used to create an extracellular matrix between cells and fiber. The polysulfone fiber was coated with protein by flushing with 10 mL of coating solution containing 1 mg collagen per 1 mL Phosphate Buffered Saline (PBS). In this manner, CEM cells growing originally in suspension build up a 3-D solid tumor. During 4 weeks of culturing, the media were replaced each week.
# The number of cells was determined using Trypan blue (Sigma-Aldrich, Oakville, ON) exclusion method (K. Takahashi, G. Loo, Biochem. Pharmacol. 67 (2004) 315-324). Briefly, CEM cells were harvested from HFB, seeded in 6 well microplates and exposed to 0.4% (w/v) trypan blue dye solution. Cell number was determined manually with a hemacytometer chamber (Hausser Scientific, Horsham, Pa.).
smiles,measurement,setting,value
"CCOc1cc2c(c(OC)c1OC)-c1ccc(SC)c(=O)cc1[C@@H](N(C(C)=O)C(=O)CNC(=O)C(F)(F)F)CC2 [Compound 49, N-[(7S)-3-ethoxy-1,2-dimethoxy-10-methylsulfanyl-9-oxo-5,6,7,9-tetrahydrobenzo[α]heptalen-7-yl]-N-[(trifluoroacetyl)glycyl]acetamide]",fold lower IC50 than IC50 of (39),CEM cells [1],about 8 fold
COc1cc2c(c(OC)c1OC)-c1ccc(SC)c(=O)cc1[C@@H](NC(=O)CNC(=O)C(F)(F)F)CC2 [Compound 47a],IC50,[2],0.00631 µM
same,IC50,[3],0.0501 µM
same,IC50,[4],0.0631 µM
same,IC50,[5],126 µM
"COc1cc2c(c(OCc3ccccc3Cl)c1OC)-c1ccc(OC)c(=O)cc1[C@@H](NC(C)=O)CC2 [Compound 14, N-[(7S)-2,3,10-trimethoxy-9-oxo-1-((phenyl(2-chloro))methoxy)-5,6,7,9-tetrahydrobenzo[α]heptalen-7-yl]acetamide]",dissolution at normal pH,[6],X*
COc1cc2c(c(OCc3cccnc3)c1OC)-c1ccc(OC)c(=O)cc1C(NC(=O)CNC(=O)C(F)(F)F)CC2 (centres unmarked) [Compound 35],mean CEM cell density in the region with lower densities,CEM cells [7],1.4×10^8 cells/mL
same,mean number of cells in the region with higher cell densities,CEM cells [7],4.8×10^8 cells/mL
same,mean cell concentration corresponding to mean 19F SI,CEM cells [7],6.9×10^8 cells/mL
same,"expression of MHC (class I) receptor, HPLC peak intensity",CEM cells [8]; eluted at 53 min,0.7 V
same,"apoptotic protein signal, HPLC peak intensity",CEM cells [8],0.2 V
same,number of viable cells,CEM cells [9],2.9×10^8 cells/mL
same,viability of cells in HFB,CEM cells [9],30%
same,viability of cell cultures,CEM cells [9],35%±5
COc1cc2c(c(OC)c1OC)-c1ccc(OC)c(=O)cc1[C@@H](NC(=O)CNC(=O)C(F)(F)F)CC2 [Compound 28a],IC50,[2],0.0398 µM
same,IC50,[3],0.316 µM
same,IC50,[4],0.631 µM
CCOc1c(OC)c(OC)cc2c1-c1ccc(OC)c(=O)cc1[C@@H](NC(=O)CNC(=O)C(F)(F)F)CC2 [Compound 28],mean CEM cell density in the region with lower densities,CEM cells [7],2.4×10^8 cells/mL
same,mean number of cells in the region with higher cell densities,CEM cells [7],3.5×10^8 cells/mL
same,mean cell concentration corresponding to mean 19F SI,CEM cells [7],6.03×10^8 cells/mL
same,"apoptotic protein signal, HPLC peak intensity",CEM cells [8],0.3 V
same,number of viable cells,CEM cells [9],3.45×10^8 cells/mL
same,viability of cells in HFB,CEM cells [9],35%
same,viability of cell cultures,CEM cells [9],38%±4
"C=CCOc1cc2c(c(OC)c1OC)-c1ccc(SC)c(=O)cc1[C@@H](N(C(C)=O)C(=O)CNC(=O)C(F)(F)F)CC2 [Compound 48, N-[(7S)-1,2-dimethoxy-10-methylsulfanyl-9-oxo-3-(prop-2-enoxy)-5,6,7,9-tetrahydrobenzo[α]heptalen-7-yl]-N-[(trifluoroacetyl)glycyl]acetamide]",fold lower IC50 than IC50 of (39),CEM cells [1],about 8 fold
"COc1c(O)cc2c(c1OC)-c1ccc(SC)c(=O)cc1[C@@H](N(C(C)=O)C(=O)CNC(=O)C(F)(F)F)CC2 [Compound 47, N-[(7S)-3-hydroxy-1,2-dimethoxy-10-methylsulfanyl-9-oxo-5,6,7,9-tetrahydrobenzo[α]heptalen-7-yl]-N-[(trifluoroacetyl)glycyl]acetamide]",fold lower IC50 than IC50 of (39),CEM cells [1],about 8 fold
